Source: paper PMC9486541, “Design, synthesis and cytotoxic evaluation of novel betulonic acid-diazine derivatives as potential antitumor agents” (Frontiers in Chemistry, 2022)

Tests used:
[1] = test system: MCF-7; experiment: MTT assay, MCF-7 cells; format: cell-based, human; settings: Homo sapiens, MCF7, 72 h incubation, read-out: Half maximal inhibitory concentration (IC50) values, MCF-7
Excerpt: (§1) The human hepatocellular carcinoma cell line (HepG2), human hepatocellular carcinoma cell line (Bel-7402), human cervical cancer cell line (Hela), human breast adenocarcinoma cell line (MCF-7) and Madin-Darby canine kidney cell line (MDCK) were obtained from the Chinese Academy of Medical Sciences and Peking Union Medical College. Cultures were maintained as monolayer in RPMI-1640/DMEM supplemented with 10% (v/v) fetal bovine serum (FBS) and 1% (v/v) penicillin/streptomycin (Thermo Technologies, New York, NY, United States) under a humidified atmosphere containing 5% CO2 at 37°C. The BoA derivatives and positive control drugs (BoA and DDP) under study were dissolved in DMSO (Sigma, St. Louis, MO, United States) and added at required concentrations to the cell culture. Cells incubated without the preparations served as the control.
(§2) The antitumor activity was assessed by MTT assay, as previously reported ([Fang et al., 2018]). Each tested compound and positive control drugs were dissolved in DMSO and diluted with the medium to the test concentrations, and the final concentration of DMSO in the culture medium was controlled at less than 0.5% (v/v). Briefly, cells were cultured at 37°C and dispersed in replicates in 96-well plates with HepG2, Bel-7402, HeLa, MCF-7 and MDCK for 24 h. Fresh medium along with compounds (BoAA-BoAE, BoA2A-BoA2G, BoA3A-BoA3G, BoA4A-BoA4G) at different concentrations was then added to individual wells and incubated for 72 h, with BoA and DDP as the positive control. Experiments on FXR expression were separated into three groups: Control (PBS), BoA2C (8 μM), and BoA2C (8 μM) + DY268 (10 μM) ([Giordano et al., 2016]), with three repeating wells in each. In separate wells, BoA2C and DY268 were introduced and cultured for 72 h. After 72 h, the cell was incubated with MTT solution (0.5 mg/ml) for an additional 4 h at 37°C. The produced formazan crystals were solubilized with DMSO, and the optical density of solution was measured at 570 nm using a plate reader (BIORAD 550 spectrophotometer, Bio-rad Life Science Development Ltd., Beijing, China). Wells without drugs were used to be blanks. The IC50 values were defined as the concentration of compounds that produced a 50% proliferation inhibition of surviving cells and calculated using the Graph Pad Prism 5. The inhibitory rate was calculated in the following Equation 1, where OD is the optical density: % inhibition=[1−(OD Sample group−OD Blank group)/(OD Control group−OD Blank group)]×100% (1)

[2] = test system: Bel-7402; experiment: MTT assay, Bel-7402 cells; format: cell-based, human; settings: Homo sapiens, Bel-7402, 72 h incubation, read-out: Half maximal inhibitory concentration (IC50) values, Bel-7402
Excerpt: as §1, §2

[3] = test system: MDCK; experiment: MTT assay, MDCK normal cell line; format: cell-based, canine
Excerpt: as §1, §2

[4] = test system: MCF-7 cells; experiment: Wound healing assay; format: cell-based, human; settings: 8 μM, 0, 24, 48 h, compared to control group
Description: MCF-7 cells were seeded in six-well plates at a density of […] and incubated at 37°C to achieve 100 percent confluence. After starving the cells for 24 h, a wound (cell-free) was drawn across the center of the well using the tip of a 1 ml plastic pipette. Wells were cleaned twice with PBS before being treated for 48 h with BoA2C (8 μM). At 0 h, 24 h, and 48 h, cells were viewed and photographed in randomly selected fields using an inverted light microscope (Nikon).

[5] = test system: Hela; experiment: MTT assay, Hela cells; format: cell-based, human; settings: Homo sapiens, HeLa, 72 h incubation, read-out: Half maximal inhibitory concentration (IC50) values, Hela
Excerpt: as §1, §2

C=C(C)[C@@H]1CC[C@]2(C(=O)OCCOC(=O)c3cnc(C)cn3)CC[C@]3(C)[C@H](CC[C@@H]4[C@@]5(C)CCC(=O)C(C)(C)[C@@H]5CC[C@]43C)[C@@H]12 [BoA2C, (5-Methylpyrazin-2-acyloxy)-ethyl-3-oxolup-20(29)-en-28-oate]
IC50 [1]: 3.39 ± 0.07 µM | melting point: 139 to 141 °C | IC50 [2]: 3.65 ± 0.43 µM | cytotoxicity on MDCK cell line compared with DDP (cisplatin) ([3]; 72 h): lower cytotoxicity on MDCK cell line than cisplatin | IC50 ([3]; Canis lupus familiaris, MDCK, 72 h incubation, normal cell line, read-out: Half maximal inhibitory concentration (IC50) values, MDCK): > 30 µM | migration of cells in the scratch wound [4]: obviously reduced the migration of MCF-7 cells | IC50 [5]: 15.6 ± 2.63 µM
